Here are results for eight compounds from ChEMBL document CHEMBL1201862, “PubChem BioAssay data set” (2004).

The structures appear in SMILES notation.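 Results reflect a 48-hour exposure of cells in 96-well plates to compound at five concentrations. GI50 marks 50% less growth.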 The source made the active and inactive calls. No stated cut-off is given here; in the data, active = GI50 up to about 1.1 µM and inactive = higher. A value given as a limit tells only on which side of the number the result lay.

Test systems include MCF7; DU-145; BT-549; HOP-62; HCC 2998; M14; OVCAR-3; IGROV-1; SNB-19; SK-MEL-2; OVCAR-8; LOX IMVI; SF-295; NCI/ADR-RES; PC-3; NCI-H460; Hs-578T; U-251; SW-620; HOP-92.
What all share (assay): growth of human tumour cells (NCI), 48 h

Turning to `COc1cc(/C=C2\N=C(c3ccccc3)N(c3nc4c(Cl)cc(Cl)cc4s3)C2=O)ccc1O`, the GI50 with MCF7 is 28.1 µM (inactive); in the experiment on DU-145, 34.8 µM (inactive); with BT-549, 21.1 µM (inactive); with HOP-62 it was 32 µM (inactive); with HCC 2998, 19.8 µM (inactive); in the experiment on M14, 40.5 µM (inactive). Moreover, the GI50 was 24.2 µM (inactive) in the experiment on OVCAR-3; 29.1 µM (inactive) in the experiment with IGROV-1; 36.6 µM (inactive) in the experiment on SNB-19; 23.4 µM (inactive) in the experiment with SK-MEL-2; 31.8 µM (inactive) with OVCAR-8; 20.5 µM (inactive) in the experiment with LOX IMVI. For the same compound, the GI50 is 34.4 µM (inactive) with SF-295; 31 µM (inactive) in the experiment with NCI/ADR-RES; 19.5 µM (inactive) with PC-3; 28.3 µM (inactive) in the experiment on NCI-H460; 18.2 µM (inactive) in the experiment on Hs-578T; 22.9 µM (inactive) with U-251. In addition, the results for the GI50 in the experiment with SW-620 and with HOP-92 were 32.4 µM (inactive) and 21.3 µM (inactive), respectively.
On to `O=C1OCN(c2ccccc2)C12CCN(Cc1ccccc1)CC2`, for which the GI50 was 32.6 µM (inactive) in the experiment with MCF7; 66.4 µM (inactive) in the experiment with DU-145; 67.1 µM (inactive) with BT-549; 49.3 µM (inactive) with HOP-62; 6.62 µM (inactive) in the experiment on HCC 2998; 18.2 µM (inactive) with M14. Moreover, the GI50 is > 10 µM (inactive) in the experiment on OVCAR-3; 59.8 µM (inactive) with IGROV-1; 67 µM (inactive) in the experiment on SNB-19; 25.8 µM (inactive) in the experiment on SK-MEL-2; 39.4 µM (inactive) with OVCAR-8; 14.6 µM (inactive) in the experiment with LOX IMVI. Besides, the GI50 is 16.4 µM (inactive) with SF-295; 50.4 µM (inactive) in the experiment on NCI/ADR-RES; 24.7 µM (inactive) in the experiment with PC-3; 22.9 µM (inactive) in the experiment on NCI-H460; 23.9 µM (inactive) in the experiment on Hs-578T; 16.9 µM (inactive) with U-251. The GI50 in the experiment on SW-620 is 18 µM (inactive); with HOP-92, 39.3 µM (inactive).
Turning to `Clc1cc(OC23CC4CC(CC(C4)C2)C3)nc(Cl)n1`, the GI50 is 55.7 µM (inactive) in the experiment with MCF7; 55.7 µM (inactive) in the experiment with DU-145; > 100 µM (inactive) in the experiment with BT-549; > 100 µM (inactive) in the experiment on HOP-62; 12.9 µM (inactive) with HCC 2998; 29.9 µM (inactive) in the experiment with M14. For the same compound, the GI50 is 39.2 µM (inactive) in the experiment on OVCAR-3; 27.2 µM (inactive) in the experiment on IGROV-1; > 100 µM (inactive) with SNB-19; 29.6 µM (inactive) in the experiment on SK-MEL-2; > 100 µM (inactive) in the experiment on OVCAR-8; 17 µM (inactive) with LOX IMVI. Besides, the GI50 in the experiment with SF-295 was > 100 µM (inactive); in the experiment on NCI/ADR-RES, > 100 µM (inactive); with PC-3, > 100 µM (inactive); in the experiment on NCI-H460, 39.6 µM (inactive); in the experiment with Hs-578T, 22.8 µM (inactive); in the experiment on U-251, 55.8 µM (inactive). For the same compound, the GI50 in the experiment with SW-620 is 41.2 µM (inactive); in the experiment on HOP-92, 1.7 µM (inactive).
As to `COc1ccc(/C=C2\CCC(CN(C)C)C2=O)cc1OC` (stereo not given), the GI50 was 2.56 µM (inactive) in the experiment with MCF7; 8.24 µM (inactive) in the experiment with DU-145; 5.43 µM (inactive) in the experiment with BT-549; 18.8 µM (inactive) with HOP-62; 5.83 µM (inactive) with HCC 2998; 6.87 µM (inactive) in the experiment with M14. In addition, the GI50 was 7.21 µM (inactive) in the experiment on OVCAR-3; 13.1 µM (inactive) with IGROV-1; 16.5 µM (inactive) in the experiment on SNB-19; 11.5 µM (inactive) in the experiment on SK-MEL-2; 2.9 µM (inactive) in the experiment with OVCAR-8; 1.91 µM (inactive) in the experiment on LOX IMVI. For the same compound, the GI50 with SF-295 was 15.1 µM (inactive); in the experiment on NCI/ADR-RES it was 2.49 µM (inactive); in the experiment on PC-3 it was 7.55 µM (inactive); in the experiment on NCI-H460 it was 11.1 µM (inactive); in the experiment with Hs-578T, 4.3 µM (inactive); in the experiment with U-251, 16.1 µM (inactive). Moreover, the GI50 in the experiment with SW-620 was 1.82 µM (inactive); with HOP-92, 5.69 µM (inactive).
As to `Cc1cc2c(c3c1c1ccccc1n3C)C(=O)C=CC2=O`, the GI50 was 10.9 µM (inactive) in the experiment on MCF7; 58.9 µM (inactive) in the experiment with DU-145; 14.1 µM (inactive) in the experiment with BT-549; 44.1 µM (inactive) in the experiment with HOP-62; 33 µM (inactive) in the experiment with HCC 2998; 25.6 µM (inactive) in the experiment with M14. Also, the GI50 was 11.5 µM (inactive) in the experiment with OVCAR-3; 39.6 µM (inactive) in the experiment on IGROV-1; 63.7 µM (inactive) in the experiment on SNB-19; 21.6 µM (inactive) in the experiment with SK-MEL-2; 22.9 µM (inactive) in the experiment with OVCAR-8; 16.9 µM (inactive) in the experiment with LOX IMVI. In addition, the GI50 with SF-295 is 32.4 µM (inactive); with NCI/ADR-RES it was 35.8 µM (inactive); in the experiment with PC-3 it was 16.9 µM (inactive); in the experiment with NCI-H460 it was 33.9 µM (inactive); in the experiment with Hs-578T, 24.8 µM (inactive); with U-251, 19.3 µM (inactive). The GI50 in the experiment with SW-620 was 7.6 µM (inactive); in the experiment with HOP-92, 12.9 µM (inactive).
As for `CCCCc1ccc(Nc2nc(Cl)c3ncn(COCCOC(C)=O)c3n2)cc1`, the GI50 in the experiment on MCF7 is 27.4 µM (inactive); with DU-145 it was 16 µM (inactive); in the experiment with BT-549, 16.5 µM (inactive); in the experiment on HOP-62, 17.1 µM (inactive); in the experiment on HCC 2998, 11.9 µM (inactive); in the experiment with M14, 18 µM (inactive). The GI50 was 20.2 µM (inactive) with OVCAR-3; 15.7 µM (inactive) in the experiment with IGROV-1; 19.9 µM (inactive) in the experiment with SNB-19; 14.8 µM (inactive) in the experiment with SK-MEL-2; 18.5 µM (inactive) with OVCAR-8; 14.8 µM (inactive) in the experiment with LOX IMVI. For the same compound, the GI50 in the experiment with SF-295 is 17.4 µM (inactive); in the experiment with NCI/ADR-RES, 20 µM (inactive); in the experiment with PC-3, 16.8 µM (inactive); in the experiment with NCI-H460, 17.6 µM (inactive); with Hs-578T, 21.7 µM (inactive); with U-251 it was 18.3 µM (inactive). Also, the GI50 in the experiment on SW-620 is 21.1 µM (inactive); in the experiment on HOP-92 it was 2.06 µM (inactive).
Take `Cc1ccc(/C=C/C(=N/NC(=O)N/N=C(/C=C/c2ccc(C)cc2)C(C)(C)CN2CCCCC2)C(C)(C)CN2CCCCC2)cc1`: the GI50 was 1.47 µM (inactive) in the experiment on MCF7; 3.48 µM (inactive) in the experiment with DU-145; 2.1 µM (inactive) in the experiment with BT-549; 1.65 µM (inactive) with HOP-62; 1.77 µM (inactive) in the experiment with HCC 2998; 0.614 µM (active) in the experiment on M14. Also, the GI50 in the experiment on OVCAR-3 is 1.48 µM (inactive); with IGROV-1 it was 1.98 µM (inactive); in the experiment on SNB-19, 2.11 µM (inactive); with SK-MEL-2, 1.94 µM (inactive); with OVCAR-8, 1.54 µM (inactive); with LOX IMVI it was 1.16 µM (inactive). The GI50 in the experiment with SF-295 is 1.71 µM (inactive); in the experiment with NCI/ADR-RES it was 1.64 µM (inactive); in the experiment on PC-3, 1.69 µM (inactive); in the experiment with NCI-H460 it was 1.64 µM (inactive); in the experiment with Hs-578T, 1.52 µM (inactive); in the experiment with U-251 it was 1.48 µM (inactive). Further, the results for the GI50 in the experiment with SW-620 and in the experiment with HOP-92 were 1.79 µM (inactive) and 1.51 µM (inactive), respectively.
With `C/C=C1/CN2CCC34C5=CC(=O)C(c6cc7c(cc6OC)N(C)C6=C(C(=O)OC)CC8(CC)CCCN9CCC67C98)=CC5=NC23CCC1C4C(=O)OC` (stereo not given), the GI50 in the experiment with MCF7 was 9.14 µM (inactive); in the experiment with DU-145, 18.7 µM (inactive); in the experiment on BT-549 it was 16 µM (inactive); in the experiment on HOP-62, 16.8 µM (inactive); in the experiment with HCC 2998, 15.7 µM (inactive); in the experiment with M14, 12.3 µM (inactive). Moreover, the GI50 was 14.3 µM (inactive) in the experiment on OVCAR-3; 17.9 µM (inactive) in the experiment on IGROV-1; 16 µM (inactive) in the experiment with SNB-19; 16.5 µM (inactive) in the experiment with SK-MEL-2; 14.9 µM (inactive) in the experiment on OVCAR-8; 16.7 µM (inactive) in the experiment with LOX IMVI. For the same compound, the GI50 with SF-295 was 17.7 µM (inactive); in the experiment with NCI/ADR-RES, 18.8 µM (inactive); in the experiment with PC-3, 13 µM (inactive); in the experiment with NCI-H460 it was 14.3 µM (inactive); with Hs-578T, 7.21 µM (inactive); with U-251, 15.2 µM (inactive). Further, the figures for the GI50 in the experiment with SW-620 and in the experiment on HOP-92 were 8.73 µM (inactive) and 7.85 µM (inactive), respectively.
